Here are results for nine compounds from paper PMC3665789 (PLoS ONE, 2013).

Series [1] deals with HSV-2 wild-type G (reference strain). Description: microbe, parasite or virus in culture. Particulars: Human alphaherpesvirus 2, HEL.
Series [2] relates to HSV-1 TK^- RV-294 (clinical isolate). Kind of series: microbe, parasite or virus in culture. Particulars: Human alphaherpesvirus 1, HEL.
Series [3] relates to HSV-2 wild-type RV-24 (clinical isolate). Kind of series: microbe, parasite or virus in culture. To be noted: Human alphaherpesvirus 2, HEL.
Series [4] concerns HSV-1 TK^- RV-179 (clinical isolate). Kind of series: microbe, parasite or virus in culture. Particulars: Human alphaherpesvirus 1, HEL.
The test system of series [5] is HSV-1 wild-type C559142 (clinical isolate). Kind of series: microbe, parasite or virus in culture. Particulars: Human alphaherpesvirus 1, HEL.
In another series the test system is HSV-1 wild-type. Kind of series: microbe, parasite or virus in culture. Particulars: Human alphaherpesvirus 1, HEL, read-out: Median EC50.
Series [6] has as its system HSV-2 TK^- RV-129 (clinical isolate). Kind of series: microbe, parasite or virus in culture. It counts as cell-based. Particulars: Human alphaherpesvirus 2, HEL.
Series [7] deals with HSV-1 wild-type RV-175 (clinical isolate). Description: microbe, parasite or virus in culture. Particulars: Human alphaherpesvirus 1, HEL.
The test system of series [8] is HSV-1 wild-type RV-174 (clinical isolate). Description: microbe, parasite or virus in culture. Particulars: Human alphaherpesvirus 1, HEL.
In series [9] the test system is HSV-1 wild-type KOS (reference strain). Kind of series: microbe, parasite or virus in culture. Particulars: Human alphaherpesvirus 1, HEL.
The next series relates to HSV-1 TK^-. Description: microbe, parasite or virus in culture. To be noted: Human alphaherpesvirus 1, HEL, read-out: Median EC50.
The test system of series [10] is HSV-2 TK^- BA19026589 (clinical isolate). Kind of series: microbe, parasite or virus in culture. Particulars: Human alphaherpesvirus 2, HEL.
Series [11] deals with HSV-1 TK^- RV-117 (clinical isolate). Kind of series: microbe, parasite or virus in culture. Particulars: Human alphaherpesvirus 1, HEL.
In another series the test system is HSV-2 wild-type. Kind of series: microbe, parasite or virus in culture. Particulars: Human alphaherpesvirus 2, HEL, read-out: Median EC50.
In another series the test system is HSV-2 TK^-. Description: Anti-HSV CPE assay in HEL, summary. It counts as cell-based. Particulars: Human alphaherpesvirus 2, HEL, read-out: Median EC50.
Series [12] has as its system HSV-2 wild-type RV-124 (clinical isolate). Description: microbe, parasite or virus in culture. To be noted: Human alphaherpesvirus 2, HEL.
For another series, the system named is HIV-1 IIIB. Description: Time-of-drug-addition study, HIV. It counts as cell-based. Particulars: MT-4 cells; for time of addition after infection at which antiviral activity is completely lost: p24 Ag ELISA after 31 h, 421 µM dextran sulfate 8000, 6 µM AMD3100. As to the method: The time-of-drug-addition (TOA) experiments were performed as described. In brief, 1×10^6 MT-4 cells/ml were infected with HIV-1 X4 IIIB at a multiplicity of infection (MOI) of 0.5. The compounds were added at different time points in a range from 0 to 26 h post-infection. After 31 h, HIV-1 replication was detected by p24 HIV-1 Ag ELISA as described above. The reference compounds were added at 100 times their EC50-values, as obtained in the MT-4 cell antiviral assay.

In another series the test system is HSV-2 strain G. Kind of series: Time-of-drug-addition study, HSV-2. The class given is cell-based. Particulars: HEL cells; LabyA1 19 µM, ACV 35 µM; after 3 days. As to the method: TOA experiments for HSV-2 were performed identically as the viral replication assays, but each compound separately (LabyA1 or ACV) was added together with the virus (0 h) or after 2 h post-infection. The reference compound was added at least 100 times its EC50-value, as obtained in the HEL cell line (Table 3).

In the next series the test system is herpes virus. Kind of series: Anti-herpes virus activity of griffithsin in vitro. The class given is cell-based.
A further series concerns HIV. More on the design: method as in PMID 15613479, PMID 17669213. To be noted: cited from earlier work.
The test system of the next series is HIV-1 NL4.3. Description: Pre-incubation of MT-4 cells with compound, wash, then HIV-1 NL4.3 infection. To be noted: MT-4 cells pre-incubated 2 h at 37°C, washed, infected with HIV-1 NL4.3; 5 days; control 100% CPE. It counts as cell-based.
The subject of series [13] is HIV-1 NL4.3 binding to CD4+ SupT1 cells. It counts as cell-based. Particulars: LabyA1 9.6 µM, sCD4 10 µg/ml, AMD3100 12 µM; no compound MFI 9.8, background 3.9.
The test system of a further series is PBMCs. Description: Activation markers CD25 and CD69 on PBMCs (flow cytometry). It counts as cell-based. Particulars: 3 days, LabyA1 9.6 µM, PHA 0.016 µM. As to the method: The effects of 9.6 µM LabyA1 and 0.016 µM PHA on the expression levels of the cellular activation markers CD25 and CD69 on PBMCs was measured after 3 days of incubation at 37°C. After washing with PBS/FCS2%, cells were incubated with anti-CD4 conjugated with PerCP (BD Biosciences) and co-stained with the PE-conjugated mAbs anti-CD25 or anti-CD69 (both BD Biosciences) for 30 min at 4°C. For aspecific background staining, cells were incubated with SimulTest™ Control (IgGγ1-FITC/IgGγ2a-PE). After washing, and fixation with 1% formaldehyde solution, samples were analyzed using the FACSCalibur and CellQuest software (BD Biosciences).
(A flow cytometer gives signals particle by particle.)

The subject of another series is HIV-1 R5 BaL in PBMCs. Description: Susceptibility of pre-treated PBMCs for HIV-1 infection. Particulars: washed, HIV-1 BaL, day 7.

Read-outs that look alike come from different tables or passages of the source.

Protocol for HIV-1 R5 BaL in PBMCs: The next day, cells were collected, extensively washed in culture medium, resuspended (5×10^5 cells/450 µl) and seeded in a 48-well plate. Immediately afterwards, 50 µl of HIV-1 R5 strain BaL (500 pg/well) was added and cells were cultures for 7 days. Supernatant was collected 7 days post virus infection and viral replication was determined by p24 HIV-1 Ag ELISA.

On to `C[C@H](Cn1cnc2c(N)ncnc21)OCP(=O)(O)O` [tenofovir], for which, in [1] (read-out: EC50 against HSV-2), the EC50 (usually the concentration giving half of the maximal effect) was more than 200000 nM.

In the case of `Nc1ccn(C[C@@H](CO)OCP(=O)(O)O)c(=O)n1` [Cidofovir, cidofovir], the EC50 worked out at 300 ± 20 nM in [2]; 1100 ± 300 nM in series [3]; 390 ± 120 nM in [4]; 530 ± 90 nM in [5]; 820 nM in the series with HSV-1 wild-type; 550 ± 200 nM in series [6]. Further, the EC50 in [7] was determined as 1100 ± 100 nM; in series [8], 1300 ± 100 nM; in series [1] it was 600 ± 100 nM; in series [9], 480 ± 110 nM; in the series with HSV-1 TK^- it was 390 nM; in series [10], 950 ± 240 nM. Further, the EC50 is 500 ± 120 nM in [11], 1100 nM in the series with HSV-2 wild-type, 750 nM with HSV-2 TK^- and 1300 ± 300 nM in series [12].

Take `Cc1ccnc2c1NC(=O)c1cccnc1N2C1CC1` [nevirapine]: in the series on HIV-1 IIIB (7.5 µM nevirapine), the “time of addition post-infection up to which full activity is kept” value was 4 h.

Turning to `Nc1nc2c(ncn2COCCO)c(=O)[nH]1` [Acyclovir, acyclovir], the EC50 amounted to 130 ± 90 nM in [3]; 90 ± 20 nM in series [5]; 180 nM in the series with HSV-1 wild-type; 180 ± 30 nM in [7]; 310 ± 20 nM in series [8]; 270 ± 10 nM in series [1]. Further, the concentration giving a half-maximal response (EC50) in [9] was 180 ± 90 nM; in the series with HSV-1 TK^-, more than 79000 nM; with HSV-2 wild-type, 270 nM; with HSV-2 TK^-, 52000 nM; in [12], 400 ± 60 nM. The “HSV-2 induced CPE, compound given simultaneously with virus (0 h)” value with HSV-2 strain G is “no CPE or viral replication were observed”. Besides, the “antiviral activity, compound added after 2 h adsorption period” value with HSV-2 strain G was “still active”.

As to Griffithsin, the “anti-herpes virus activity in vitro” value in the series with herpes virus is “lacks anti-herpes virus activity in vitro”. Besides, in the series on HIV, the anti-HIV activity entry is “pM range”.

In the case of enfuvirtide [T20], the “% CPE after pre-incubation of cells and removal of compound” value with HIV-1 NL4.3 amounted to 72.6±13.4 % CPE.

For the compound `c1cc(CN2CCCNCCNCCCNCC2)ccc1CN1CCCNCCNCCCNCC1` [AMD3100], the “virus binding, mean fluorescence intensity (MFI) of anti-gp120 (9205) mAb” value in [13] turned out to be 9.5. The “time of addition after infection at which antiviral activity is completely lost” value with HIV-1 IIIB amounted to 2 h. The “% CPE after pre-incubation of cells and removal of compound” value with HIV-1 NL4.3 amounted to 13.5±5.5 % CPE.

dextran sulfate 8000: the “time of addition after infection at which antiviral activity is completely lost” value in the series on HIV-1 IIIB is listed as 1 h.

As for “phytohemagglutinin [PHA, reference compound]”, the “percentage of CD4+CD69+ cells” value in the series with PBMCs (untreated 1.4±0.8%) turned out to be 30.9±5.5%. Besides, in the series with PBMCs (untreated 10.7±3.2%), the “percentage of CD4+CD25+ cells” value is reported as 37.2±6.6%. The “p24 HIV-1 Ag production after pre-treatment” value in the series with HIV-1 R5 BaL in PBMCs (PBMCs pre-treated 24 h with 0.016 µM) was found to be 125.08 ± 37.81 ng/mL; with HIV-1 R5 BaL in PBMCs (PBMCs pre-treated 24 h with 0.078 µM), 169.54 ± 35.22 ng/mL.
